Tests used:
OsZAT12 = OsZAT12 gene expression by real-time PCR, Example 12; assay type: in vivo, rice; conditions: Oryza sativa; 0.5 mM in medium, 30° C. for 2 hours, aboveground part; read-out: OsZAT12 expression level, increase vs control
From the text: In order to design primers for the target genes necessary for gene expression analysis by real-time PCR, homologs of Arabidopsis thaliana high-temperature-responsive genes in rice were searched for. The amino acid sequence of Arabidopsis thaliana ZAT12 (AGI code: AT5G59820) was obtained from TAIR (https://www.arabidopsis.org/), and the nucleotide sequence of the homolog was obtained using RAP-DB (https://rapdb.dna.affrc.go.jp/). As a reference gene, the nucleotide sequence of the homolog of Arabidopsis thaliana ACTIN2 (AGI code: AT3G18780) was also obtained. Homolog genes in rice were designated as OsZAT12 and OsACT1, respectively.
The materials as employed in Example 3 were used.
The method as employed in Example 3 was employed.
The rice samples subjected to germination for 3 days were inoculated into a liquid medium consisting of a ½ Murashige and Skoog Plant Salt Mixture. Specifically, a liquid medium was dispensed at 3 ml/well to a 12-well microplate (IWAKI), and 3 samples were transferred to each well. N-acetylglutamic acid was applied to each well to the final concentration of 0.5 mM in the medium, incubation was performed at 30° C. for 2 hours, and RNA was extracted from the aboveground part using the RNeasy Plant Mini Kit. […]
Thereafter, the relative expression level of the target gene upon N-acetylglutamic acid treatment was calculated by the ΔΔCt method.

HSFA2 = experiment: Histone H4 acetylation level of HSFA2 by chromatin immunoprecipitation and quantitative PCR, Example 14; assay type: in vivo, Arabidopsis thaliana (Col-0); conditions: Arabidopsis thaliana; 0.4 mM in medium, 2 hours after application; read-out: histone H4 acetylation level of HSFA2, increase vs group not subjected to the treatment
Description: A wild-type Arabidopsis thaliana strain (accession: Col-0) was used as an experimental material. Seeds were purchased from Inplanta Innovations Inc.
A liquid medium containing a ½ Murashige and Skoog Plant Salt Mixture (Nacalai) and 1 (w/v) % sucrose (FUJIFILM Wako) was used as a growth medium.
Arabidopsis thaliana seeds were sterilized with the use of a Kitchen Haiter® liquid (Kao Corporation) diluted to one-half concentration with distilled water for 3 minutes, washed 3 times with sterile distilled water, and then incubated at 4° C. overnight. The growth medium (100 ml) was prepared in a 300-ml flask, the incubated seeds were seeded therein, the flask was transferred to an incubator (TOMY), and shake culture was then initiated. The incubator was maintained at a temperature of 22° C. for a daily cycle of 16 hours light and 8 hours darkness, and the rotation speed of the shaker was set at 180 rpm.
A stock solution of N-acetylglutamic acid (Tokyo Chemical Industry Co., Ltd.) was added to Arabidopsis thaliana 7 days after seeding to the final concentration of 0 mM and 0.4 mM in the media, followed by incubation for 2 hours. Sample fixation following incubation was performed in accordance with Yamaguchi et al (Arabidopsis Book, Feb. 17, 2014; 12: e0170). […]

CC(=O)N[C@@H](CCC(=O)O)C(=O)O [N-acetylglutamic acid]
fold induction at 500 µM (OsZAT12): 2.9
fold induction at 400 µM (HSFA2): 2

Source: patent US20260324636A1, “COMPOSITION FOR PROVIDING PLANT WITH STRESS RESISTANCE” (KIRIN HOLDINGS KABUSHIKI KAISHA, priority 2022, published 2026)
